Experimental data taken from the supplement of paper PMC10307832.

Tests used:
Experiment in all cases: relative viability (nuclei count vs DMSO), 5 days (fraction); higher = more cells survive
[1] = compound: O=c1[nH]cc(F)c(=O)[nH]1 [5-Fluorouracil] + CC(=O)Nc1cccc(-n2c(=O)n(C3CC3)c(=O)c3c(Nc4ccc(I)cc4F)n(C)c(=O)c(C)c32)c1 [Trametinib] (partner 0.02 µM)
In short: (§1)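 The day after seeding in 1536-well plates, lung cancer cell lines were treated by pin tool with a single drug, or with a fixed anchor-drug dose together with five library-drug doses (not always all listed) in √10 steps. After 5 days, a combined fix-and-stain solution (final 0.05% Triton X-100, 1% formaldehyde, 1 ug/ml Hoechst) was added. Nuclei counted on 4× images gave relative viability as treated counts over vehicle counts, reported as the median of duplicate plates.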

Sulindac + Olaparib = compound: CC1=C(CC(=O)O)c2cc(F)ccc2/C1=C\c1ccc([S+](C)[O-])cc1 [Sulindac] + O=C(c1cc(Cc2n[nH]c(=O)c3ccccc23)ccc1F)N1CCN(C(=O)C2CC2)CC1 [Olaparib] (partner 8 µM)
In short: as §1

[2] = compound: CN[C@@H]1C[C@H]2O[C@@](C)([C@@H]1OC)n1c3ccccc3c3c4c(c5c6ccccc6n2c5c31)C(=O)NC4 [Staurosporine] + CS(=O)(=O)N1CCN(Cc2cc3nc(-c4cccc5[nH]ncc45)nc(N4CCOCC4)c3s2)CC1 [Pictilisib] (partner 1 µM)
In short: as §1

[3] = compound: CN[C@@H]1C[C@H]2O[C@@](C)([C@@H]1OC)n1c3ccccc3c3c4c(c5c6ccccc6n2c5c31)C(=O)NC4 [Staurosporine] + Nc1nc2[nH]cc(CCc3ccc(C(=O)N[C@@H](CCC(=O)O)C(=O)O)cc3)c2c(=O)[nH]1 [Pemetrexed] (partner 0.2 µM)
In short: as §1

Cell Line | relative viability ([1]; first compound 0.02 µM) | relative viability ([1]; first compound 0.2 µM) | relative viability ([1]; first compound 0.6325 µM) | relative viability ([1]; first compound 2 µM) | relative viability (Sulindac + Olaparib; first compound 0.08 µM) | relative viability (Sulindac + Olaparib; first compound 0.253 µM) | relative viability (Sulindac + Olaparib; first compound 0.8 µM) | relative viability (Sulindac + Olaparib; first compound 2.53 µM) | relative viability (Sulindac + Olaparib; first compound 8 µM) | relative viability ([2]; first compound 0.005 µM) | relative viability ([2]; first compound 0.01581 µM) | relative viability ([2]; first compound 0.05 µM) | relative viability ([2]; first compound 0.1581 µM) | relative viability ([2]; first compound 0.5 µM) | relative viability ([3]; first compound 0.005 µM) | relative viability ([3]; first compound 0.01581 µM) | relative viability ([3]; first compound 0.05 µM) | relative viability ([3]; first compound 0.1581 µM) | relative viability ([3]; first compound 0.5 µM)
NCI-H661 | 0.63 | 0.67 | 0.481 | 0.567 | 0.971 | 0.789 | 0.59 | 0.742 | 0.836 | 0.345 | 0.265 | 0.277 | 0.245 | 0.271 | 0.901 | 0.667 | 0.542 | 0.353 | 0.186
LXF-289 | 0.674 | 0.591 | 0.346 | 0.33 | 1.24 | 1.18 | 0.873 | 1.18 | 1.19 | 0.48 | – | 0.111 | 0.0648 | 0.0482 | 0.812 | 0.182 | 0.307 | 0.0978 | 0.159
LOU-NH91 | 0.814 | 0.871 | 0.818 | 0.596 | 0.955 | 0.961 | 0.84 | 0.893 | 1.01 | 0.521 | 0.38 | 0.338 | 0.277 | 0.279 | 0.339 | 0.304 | 0.336 | 0.255 | 0.274
NCI-H2347 | 0.281 | 0.256 | 0.293 | 0.166 | 0.546 | 0.599 | 0.562 | 0.574 | 0.616 | 0.836 | 0.217 | 0.487 | 0.333 | 0.357 | 0.36 | 0.321 | 0.32 | 0.329 | 0.291
NCI-H2009 | 0.255 | 0.271 | 0.247 | 0.215 | 0.893 | 0.716 | 0.679 | 0.666 | 0.754 | 0.195 | 0.146 | 0.182 | 0.115 | 0.0836 | 0.895 | 0.389 | 0.222 | 0.156 | 0.112
HCC-827 | 0.407 | 0.544 | 0.425 | 0.276 | 0.636 | 0.683 | 0.573 | 0.659 | 0.734 | 1.24 | 0.812 | 0.559 | 0.552 | 0.43 | 0.266 | 0.278 | 0.246 | 0.171 | 0.154
CAL-12T | 0.424 | 0.393 | 0.33 | 0.299 | 0.794 | 0.727 | 0.649 | 0.664 | 0.769 | 0.303 | 0.0968 | 0.135 | 0.19 | 0.218 | 0.345 | 0.248 | 0.229 | 0.191 | 0.124
PC-3 [JPC-3] | 0.784 | 0.823 | 0.782 | 0.661 | 1.36 | 1.09 | 0.941 | 1.13 | 1.25 | 0.655 | – | 0.446 | 0.271 | 0.242 | 0.975 | 0.444 | 0.516 | 0.389 | 0.347
